The text below walks through data of US5399566A, “Pyridine derivatives having angiotensin II antagonism” (Meiji Seika Kabushiki Kaisha, priority 1990, dated 1995).

One data set deals with Renal hypertensive rats. Description: Hypotensive effect in renal hypertensive rats (RHR). Type of data set: in vivo, Spraque-Dawley (SD) male rats. Conditions: oral, 3 mg/kg. The protocol: Renal hypertensive rats, a model of high-renin hypertension, were prepared according to the method of J. L. Cangiano et al. (Journal of Pharmacology and Experimental Therapeutics, 208, 310-313, 1979). That is, the experiment was conducted with Spraque-Dawley (SD) male rats (250-300 g), which were ligated the left renal artery with a thread under the anesthetic condition, so that the systolic blood pressure was increased more than 150 mmHg on 1 week after the operation. The subject compounds were orally administered in the form of a homogeneous suspension in a 0.5% aqueous carboxymethylcellulose solution, and a mean blood pressure was measured in the same manner as in the paragraph 1-2. Heart rate was counted with a cardiotachmeter triggered by the arterial pulse.

The nature of data set [1]: Toxicity test, oral, mice. The following applies: mouse, in vivo, ddY male mice 5 weeks old. The protocol:
Several compounds of the present invention represented by the general formula (I) were administered orally by compulsion to ddY male mice of 5 weeks old (average weight, ca. 20 g).

Data set [2] has as its system hypertensive action by angiotensin II. Put plainly: Inhibition on the hypertensive action by an exogenous angiotensin II in conscious rats. The following applies: oral; for ED50: Rattus norvegicus, within 6 hours after administration, read-out: ED50 (dose required for inhibiting the hypertensive action by angiotensin II to the extent of 50%); for inhibitory effect on the hypertensive action by angiotensin II: dose of 1 mg/kg or less, angiotensin II 0.1 μg/kg i.v. Type of data set: in vivo, Spraque-Dawley (SD) male rats. The text has this: (§1) The angiotensin II antagonistic activities in vitro were compared on the basis of the intensities (pA2 value) of antagonizing the contraction response to angiotensin II at the isolated thoracic aorta of rabbit. The in vivo activities were examined by comparing the inhibitory effects on the hypertensive action by an exogenous angiotensin II in a non-anesthetized rat and the hypotensive effects of a renal hypertensive rat or a spontaneously hypertensive rat.
Anesthetized Spraque-Dawley (SD) male rats were cannulated into a femoral artery and a femoral vein and used for the experiment at the time when it has elapsed at least 24 hours after the operation. The hypertensive action caused by angiotensin II (0.1 μg/kg) which has been administered through the vein catheter was measured under conscious and unrestrained condition before and after administration of the compound. The artery catheter was connected to a pressure transducer to measure a mean blood pressure, and the subject compounds were orally administered in the form of a homogeneous suspension in a 0.5% aqueous carboxymethyl cellulose solution.
The intensities of the inhibitory effects within 6 hours after administration of the compound were examined on the basis of the dose of the compound required for inhibiting the hypertensive action by angiotensin II to the extent of 50% (ED50 values).

Data set [3] concerns electric shock induced amnesia mice. Put plainly: Cognitive enhancing effect, step through passive avoidance in electric shock induced amnesia mice. Type of data set: in vivo, ddY strain male mice. The following applies: oral, 10 μg/kg. The protocol: In order to examine the influence of the compounds on the learning and memory facilitating, an amnesia model with use of electric shock in a step through type passive avoidance box (PA-M5 model; OBARA IKA-SANGYOSHA) in accordance with the method described by C. Giurgea et al. (Progressive of Neuropsychopharmacology, 1, 235-247 (1977)) was used.
The subject compounds were orally administered at a dose of 1 ng/kg -1 mg/kg in the form of a homogeneous suspension in a 0.5% aqueous carboxymethylcellulose solution to ddY strain male mice (4-5 weeks) 1 hour before acquisition-trial and 1 hour before retrievaltrial. The animal was first placed in the light chamber, and the door at the boundary between the light and dark chamber was opened after 30 seconds. At the same time as the animal stepped into the dark chamber, electric footshock (40 V) was delivered to the floor of the dark chamber so that the animal acquired avoidance response (acquisition-trial). […] That is, the animal was placed again in the light chamber, the door was opened after 30 seconds, and the latency of the animal into the dark -chamber was measured for up to 600 seconds, so that the time was compared with that of the solvent administered group in which amnesia had been caused by electric shock.

Data set [4] has as its target T1, contraction response to angiotensin II at the isolated thoracic aorta of rabbit (Oryctolagus cuniculus, UniProt P34976).
T1 construct: A strip of thoracic aorta of a male rabbit (2.5-3.0 kg) was prepared by the usual method; from tissue; host or cells: rabbit thoracic aorta strip
T1 sequence (P34976 1-359): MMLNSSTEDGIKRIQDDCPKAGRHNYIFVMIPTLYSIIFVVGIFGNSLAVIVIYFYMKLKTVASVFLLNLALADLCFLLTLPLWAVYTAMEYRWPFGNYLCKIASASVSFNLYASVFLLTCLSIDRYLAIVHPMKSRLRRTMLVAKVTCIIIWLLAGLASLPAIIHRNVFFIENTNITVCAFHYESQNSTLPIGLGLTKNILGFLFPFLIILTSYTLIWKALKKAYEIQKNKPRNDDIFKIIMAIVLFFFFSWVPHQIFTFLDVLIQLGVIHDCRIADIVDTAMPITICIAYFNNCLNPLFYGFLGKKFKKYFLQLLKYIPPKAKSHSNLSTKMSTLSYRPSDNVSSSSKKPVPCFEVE
Put plainly: In vitro angiotensin II antagonism, isolated rabbit thoracic aorta (Schild pA2). Type of data set: cell-based. The following applies: Schild plot.
From the text: as §1
A strip of thoracic aorta of a male rabbit (2.5-3.0 kg) was prepared by the usual method and suspended in an organ bath containing well oxygenated Krebs-Henseleit solution at 37° C. The pA2 value was calculated according to the method described by H. O. Schild (British Journal of Pharmacology and Chemotherapeutics, 2, 189-206, 1947). A strip treated with 3-5 doses of a subject compound in an amount of 10^-6 M-10^-10 M and a strip treated with no drug were employed for obtaining a dose-response curve by angiotensin II. Log (dose ratio--1) was calculated from the shift of the dose-response curve of the subject compound, and pA2 value was obtained from the Schild plottings.

The next data set has as its system ddY male mice. Description: Antianxiety effect, light and dark box. Type of data set: in vivo. Conditions: oral, 0.1 μg/kg, 1 hour. The protocol: (§2) The subject compounds were examined on their antianxiety effect with the light and dark box according to the method described by B. Costall et al. (Pharmacology Biochemistry and Behavior, 32, 777-785, 1989) and with the elevated plus maze by S. Pell et al. (Journal of Neuroscience Methods, 14, 149-167, 1985).
The subject compounds were administered orally to ddY male mice (4-5 weeks old) at a dose of 0.1-1000 μg/kg. After 1 hour they were placed in the light chamber of the light and dark box, and after 10 seconds the door at the boundary between the light chamber and the dark chamber was opened. The behavior of the animals in the light and dark box under a sound-proof condition for four minutes was observed and examined by comparing the measurements of latency to the dark chamber, shuttling between the light and dark chambers and duration in the light chamber with those in the group to which only a solvent was administered. The subject compounds were orally administered in the form of a homogeneous suspension or solution in a 0.5% aqueous carboxymethyl cellulose solution.

Data set [5] deals with spontaneously hypertensive rats. Description: Hypotensive effect in spontaneously hypertensive rats (SHR). The following applies: oral, 10 mg/kg. The format is in vivo, male spontaneously hypertensive rats. The protocol:
The subject compounds were administered orally in the same manner as in the paragraph 1-3 to male spontaneously hypertensive rats (28 weeks old, Charles-River Co.), which were measured mean blood pressure and heart rate.

For a further data set, the system named is Fisher 344 male rats. Description: Antianxiety effect, elevated plus maze. Conditions: oral, 1 μg/kg, 1 hour. Type of data set: in vivo. The protocol: as §2
To Fisher 344 male rats (5-6 weeks old), the subject compounds were orally administered at a dose of 1-100 μg/kg in the form of a homogeneous suspension or solution in a 0.5% aqueous carboxymethyl cellulose solution. Among the four arms of the elevated plus maze (a device in which four arms are intersected crosswise and connected together at a height of 50 cm from the floor), the two arms with side walls are referred to as closed arms and the two arms without side walls are referred to as open arms. […] As the indices of the behavior, the latency until stepped out from the arm first placed to the other arm and the durations in the respective arms were measured, and the other behaviors were recorded. Diazepam was used as a control agent, and the drug administered group and the solvent administered group (group to which a 0.5% aqueous carboxymethyl cellulose solution was administered)were compared for the behaviors.

A further data set has as its system SD female rats. Conditions: rat, in vivo, po, 100 mg/kg.

As to `COc1c(OCc2ccc(-c3ccccc3-c3nnn[nH]3)cc2)cc(C)nc1C` [Example 11, 3-methoxy-2,6-dimethyl-4-[2'-(tetrazol-5-yl)biphenyl-4-yl]methoxypyridine], in the data set on Renal hypertensive rats, the “depression of blood pressure” value was 20-26% and the hypotensive effect entry is “significant long-lasting hypotensive effect”. Further, in data set [1], the LD50 was above 1000 mg/kg. In addition, in data set [2], the ED50 turned out to be 0.54 mg/kg and the “inhibitory effect on the hypertensive action by angiotensin II” value is given as “significant inhibitory effects”. For the same compound, the “latency into the dark chamber (passive avoidance response)” value in data set [3] is “significant prolongation of the latency into the dark chamber”. In data set [4], this compound showed an antagonist dissociation constant (Kb) of 6.31 nM. In the data set on ddY male mice, the “duration in the light chamber” value is “increased” and the “latency to the dark chamber” value is given as “increased”. For the same compound, in data set [5], the “depression of blood pressure” value is “approximately 20%” and the hypotensive effect result is listed as “significant hypotensive effect”.
For the compound `CCOC(=O)c1c(OCc2ccc(-c3ccccc3-c3nnn[nH]3)cc2)cc(C)nc1CC` [Example 45, 3-ethoxycarbonyl-2-ethyl-6-methyl-4-[2'-(tetrazol-5-yl)-biphenyl-4-yl]methoxypyridine], in the data set on Renal hypertensive rats, the “depression of blood pressure” value is reported as 20-26% and the hypotensive effect entry was “significant long-lasting hypotensive effect”. Moreover, the LD50 in data set [1] is above 1000 mg/kg. For the same compound, in data set [2], the ED50 is 0.52 mg/kg and the “inhibitory effect on the hypertensive action by angiotensin II” value was “significant inhibitory effects”. In addition, in the data set with Fisher 344 male rats, the “duration out of the closed arm” value is on record as “increasing tendency” and the transitions result is recorded as “significant increase”. Moreover, the Kb in data set [4] is 6.76 nM. In data set [5], the “depression of blood pressure” value is “approximately 20%” and the hypotensive effect result is “significant hypotensive effect”. Further, in the data set on SD female rats, the symptom of toxicity entry was “no symptom of toxicity was observed”.

For orientation: LD50 means the dose at which mortality reaches 50%. Low values mean greater toxicity, high ones lower toxicity. By ED50 is commonly meant the dose at which the effect has come halfway, by size or by number of responders. One may read the Kb as the equilibrium dissociation constant of an antagonist, usually derived from a functional assay. Low values mean higher antagonist affinity, high ones lower antagonist affinity.
